Laboratory results from patent US9636365B2, “Antibacterial food composition” (NUTRIVERCELL, priority 2009, dated 2017).
Like-named read-outs stand apart in the source and are kept apart here.

Columns and labels:
[1] = system: E. coli strain sensitive to ATBs (S), NECS892841; test: MIC, dilution in liquid medium (CA-SFM), first S strain; format: cell-based, Escherichia coli; conditions: added composition at sub-inhibitory concentration (120 or 250 mg/L), 18 h, 37° C.
From the text: (§1) Six strains of Escherichia coli of different origins (cystitises, acute pyelonephritises, urinary chronic carriage), of different sensitivities to the main antibiotics customarily used in urinary infections and with different virulences, were selected from the strain library of the laboratory of the INSERM Espri 26 team: • 2 strains sensitive to ATBs: NECS892841 and NECS30090 • 2 strains resistant to quinolones: NECS858785 and NECS864598 • 2 strains secreting BLSE: NEC892420 and NEC118564
(§2) Three compositions were evaluated: • a composition comprising propolis powder on maltose dextrin • a composition comprising propolis powder on maltose dextrin and PACs of type A • a composition comprising maltose dextrin
(§3) Three antibiotics were studied: • ofloxacin • ceftriaxone • cefixime
(§4) The whole of the tubes were put into an oven at 37° C. overnight without stirring.

[2] = system: E. coli strain secreting BLSE, NEC118564; test: MIC, dilution in liquid medium (CA-SFM), second BLSE strain; format: cell-based, Escherichia coli; conditions: added composition at sub-inhibitory concentration (120 or 250 mg/L), 18 h, 37° C.
From the text: as §1, §2, §3, §4

[3] = system: E. coli strain resistant to quinolones (OFX R), NECS858785; test: MIC, dilution in liquid medium (CA-SFM), first OFX R strain; format: cell-based, Escherichia coli; conditions: added composition at sub-inhibitory concentration (120 or 250 mg/L), 18 h, 37° C.
From the text: as §1, §2, §3, §4

[4] = system: E. coli strain resistant to quinolones (OFX R), NECS864598; test: MIC, dilution in liquid medium (CA-SFM), second OFX R strain; format: cell-based, Escherichia coli; conditions: added composition at sub-inhibitory concentration (120 or 250 mg/L), 18 h, 37° C.
From the text: as §1, §2, §3, §4

[5] = system: E. coli strain sensitive to ATBs (S), NECS30090; test: MIC, dilution in liquid medium (CA-SFM), second S strain; format: cell-based, Escherichia coli; conditions: second S strain row; added composition at sub-inhibitory concentration (120 or 250 mg/L); 18 h, 37° C.
From the text: as §1, §2, §3, §4

[6] = system: E. coli strain secreting BLSE, NEC892420; test: MIC, dilution in liquid medium (CA-SFM), first BLSE strain; format: cell-based, Escherichia coli; conditions: added composition at sub-inhibitory concentration (120 or 250 mg/L), 18 h, 37° C.
From the text: as §1, §2, §3, §4

[7] = Quantification of propolis polyphenols in human urines after ingesting the composition; format: in vivo
Description: Two healthy volunteers of more than 18 years of age, with efficient contraception and having followed a normal diet, followed a regimen comprising the ingestion of gelatin capsules according to the composition of Example 3.
Two regimens were followed: • taking 6 gelatin capsules, • taking 8 gelatin capsules.
The taking of gelatin capsules was carried out at 8.00 am and the urines were collected by micturition in a sterile flask before ingestion, 1-6 hours after ingestion, 12 hours after ingestion and 24 hours after ingestion.
The collected urines are hydrolyzed by enzymatic hydrolysis (glucuronidase and sulfatase), and the polyphenols are then extracted and purified on Sep-Pack.
The polyphenols of propolis such as pinocembrin and galangin are then characterized and assayed.

Structure (SMILES) | MIC of the antibiotic [1] | MIC of the antibiotic [2] | MIC of the antibiotic [3] | MIC of the antibiotic [4] | MIC of the antibiotic [5] | MIC of the antibiotic [6] | amount in human urines ([7]; human, in vivo) | concentration at 12 h ([7]; human, in vivo, amount in human urines) | amount in human urines ([7]; 1-6 h after ingestion of 6 gelatin capsules of Example 3, urine hydrolyzed) | concentration at 12 h ([7]; human, in vivo, 12 h after ingestion of 6 gelatin capsules of Example 3, read-out: amount in human urines) | concentration at 24 h ([7]; human, in vivo, 24 h after ingestion of 6 gelatin capsules of Example 3, read-out: amount in human urines) | concentration at 24 h ([7]; human, in vivo, 24 h after ingestion of 8 gelatin capsules of Example 3, read-out: amount in human urines)
O=C1C[C@@H](c2ccccc2)Oc2cc(O)cc(O)c21 [Pinocembrin, pinocembrin] |  |  |  |  |  |  | 3.344 mg/L | 1140 ng/mL |  |  |  | 
CC1COc2c(N3CCN(C)CC3)c(F)cc3c(=O)c(C(=O)O)cn1c23 (stereo not drawn) [Ofloxacin, ofloxacin] | 1 µg/mL | >32 µg/mL | 2 µg/mL | 32 µg/mL | 0.25 µg/mL | >32 µg/mL |  |  |  |  |  | 
O=c1c(O)c(-c2ccccc2)oc2cc(O)cc(O)c12 [Galangin, galangin] |  |  |  |  |  |  |  |  | 0.555 mg/L | 291 ng/mL | 157 ng/mL | 311 ng/mL

More lines, main results first:

MIC of the antibiotic [1] | MIC of the antibiotic [2] | MIC of the antibiotic [3] | MIC of the antibiotic [4] | MIC of the antibiotic [5] | MIC of the antibiotic [6] | amount in human urines ([7]; human, in vivo) | concentration at 12 h ([7]; human, in vivo, amount in human urines) | Structure (SMILES) | amount in human urines ([7]; 1-6 h after ingestion of 6 gelatin capsules of Example 3, urine hydrolyzed) | concentration at 12 h ([7]; human, in vivo, 12 h after ingestion of 6 gelatin capsules of Example 3, read-out: amount in human urines) | concentration at 24 h ([7]; human, in vivo, 24 h after ingestion of 6 gelatin capsules of Example 3, read-out: amount in human urines) | concentration at 24 h ([7]; human, in vivo, 24 h after ingestion of 8 gelatin capsules of Example 3, read-out: amount in human urines)
1 µg/mL | 8 µg/mL | 0.5 µg/mL | 1 µg/mL | 0.5 µg/mL | 16 µg/mL |  |  | C=CC1=C(C(=O)O)N2C(=O)[C@@H](NC(=O)/C(=N\OCC(=O)O)c3csc(N)n3)[C@H]2SC1 [Cefixime, cefixime] |  |  |  | 
1 µg/mL | 32 µg/mL | 0.25 µg/mL | 0.5 µg/mL | 0.5 µg/mL | >32 µg/mL |  |  | CO/N=C(\C(=O)N[C@@H]1C(=O)N2C(C(=O)O)=C(CSc3nc(=O)c(O)nn3C)CS[C@H]12)c1csc(N)n1 [Ceftriaxon, ceftriaxone] |  |  |  | 
